US8372406B2, “Antitumoral and antiviral peptides” (priority 2004, dated 2013)

What was measured:
[1] = test system: R388D1 cells (lymphoid neoplasm of a mouse); experiment: Clonogenic activity of tumor cells, interaction with cyclophosphamide; format: cell-based; conditions: clones counted after 7 days; for influence upon the cloning process (clonogenic activity): taken separately
[2] = test system: leucocytes of a human; experiment: Interferon in vitro synthesis by human leucocytes (interferonogenic activity); format: cell-based; conditions: 0.01-10 microgram/ml, 24 hours, 6 donated blood samples
[3] = test system: mice tumor syngeneic graft; experiment: Growth of mice tumor syngeneic graft (alloferon research); conditions: mouse, in vivo
[4] = test system: tumor cells; experiment: In vitro effect of alloferon on tumor cell proliferation; format: cell-based; conditions: depending on concentration in cultural media
[5] = test system: R388D1-type tumor cells; experiment: In vitro influence on tumor cells proliferation (mass culture, cell counts); format: cell-based, mouse
Protocol: Object of instant experiments is the comparative analysis of influence of allostatin and alloferon on tumor cells proliferation. Effects of allostatin-1 and alloferon-1 in concentrations 0.001, 0.01, 0.1, 1, and 10 microgram per ml on proliferative activity in a mass culture of R388D1-type tumor cells were compared. 5000 cells suspended in 2 ml of […] medium were seed into wells of 24-socket plates. Medium used for the experiments comprises 5% fetal calf serum produced by firm “Biolot”. Preparations were introduced into wells in 0.2 ml of the sane medium immediately after inoculation, and, in control, equivalent amount of the medium was introduced without medications. Number of cells in 1 ml of incubating medium was estimated by means of hemocytometric camera. Average number of cells in 1 ml of incubating medium after 21, 44, 99 and 144 hours after beginning of the experiment was estimated on the base of 3 independent measurements.
FIG. 3 presents a typical view of allostatin and alloferon influence on growth dynamics of tumor cell population. As an evaluation indicator of anti-proliferative activity of the medication, the value of a growth multiplicity of the population for 90 hours was selected, which value is determined as a ratio of a number of cells in a well in the beginning and at the end of the incubation time. […]

[6] = test system: tumor cells of the syngeneic line R388D1; experiment: Antitumoral action on transplanted tumors in mice; format: in vivo, mouse (line DBA-1)
Protocol: Each of laboratory mouse (line DBA-1) was subcutaneously injected by 3000 tumor cells of the syngeneic line R388D1. Next day mice were separated into 4 experimental groups. Mice of the first group have got only allostatin in a subcutaneous way in a dosage on 25 microgram at 4, 11 and 18 day after tumor cell transplantation. Second group has got a combination of cytostatic agents, cyclophosphamide (0.56 mg), doxorubicine (0.036 mg) and vincrystine (1.05 microgram) on the day of transplantation and after 7, 14 and 21 days. Third group has got allostatin and combination of cytostatic agents in the same way. Mice of the fourth group (control group) were injected by the solvent (0.9% NaCl) in the same days.

Compound	influence upon the cloning process (clonogenic activity) [1]	interferonogenic activity (allostatin vs alloferon) [2]	growth of mice tumor syngeneic graft [3]	proliferation of tumor cells [4]	growth of the tumor cell population ([5]; 10 microgram/ml, over the observation period)	anti-proliferative activity relative to alloferon (growth multiplicity of the population) ([5]; concentrations of 0.001-1 mkg/ml, growth multiplicity for 90 hours)	mice with formed tumors during observation period ([6]; allostatin 25 microgram s.c. (days 4, 11, 18) combined with cytostatics (cyclophosphamide, doxorubicine, vincrystine)) [%]	tumor formation ([6]; allostatin or cytostatics given separately, DBA-1 mice, 3000 R388D1 cells subcutaneously)	antitumoral action ([6]; combination of allostatin and cytostatics)	clonogenic activity of tumor cells ([1]; allostatin in combination with cyclophosphamide)
O=P1(N(CCCl)CCCl)NCCCO1 (stereo not drawn) [cyclophosphamide, reference compound]	Neither cyclophosphamide, nor allostatin taken separately, had a significant influence	–	–	–	–	–	–	–	–	–
alloferon: Known immunomodulating peptide, SEQ ID NO 12; closest analogue, histidine and valine in positions 6 and 11 (HGVSGHGQHGVHG; Alloferon-1; listed as Calliphora vicina)	–	have no significant difference	depresses the growth	may both inhibit (at high concentrations) and stimulate (at low concentrations)	–	–	–	–	–	–
allostatin: Linear 13-amino-acid peptide, SEQ ID NO 1; differs from alloferon-1 by tryptophan at position 6 and threonine at position 11 (HGVSGWGQHGTHG; Synthetic construct designed on the basis of the peptides SEQ ID NO 2-12 comparison)	Neither cyclophosphamide, nor allostatin taken separately, had a significant influence	have no significant difference	–	–	almost completely stopped the growth	3-7 times	40	tumors were formed after some delays, and moderate part of animals has not exhibited tumor formation	strong and in the most cases irreversible antitumoral action	significantly decreased a clonogenic activity of tumor cells, proportionally to allostatin dose
